For orientation: IC50 means the point on the concentration scale where inhibition reaches its midpoint. Low values mean greater potency in that assay, high ones weaker potency in that assay.

These results are taken from article PMC12186253, “Grafted Coiled-Coil Peptides as Multivalent Scaffolds for Protein Recognition” (ACS Chemical Biology, 2025).

The nature of series [1]: CD thermal unfolding of individual components (peptide or protein alone). Particulars: CD at 222 nm, 5-85 °C, 20 °C/h; 25 μM in 20 mM phosphate, 100 mM NaCl, pH 7.4. The class given is physicochemical.
Method: CD spectroscopy was used to investigate the secondary structures and thermal stabilities of the designed peptides alone and in the presence of MCL-1.
prepared at 200 – 500 µM in deionized water from solid peptides) were diluted into phosphate
buffer (20 mM phosphate, 100 mM NaCl, pH 7.4) to a final concentration of 25 µM for individual
components, and at a 1:1 ratio (final concentration of all components set as 50 µM for
homomeric species and 75 µM for heterodimeric complex with MCL-1, or 1:1:1 ratio) of the
number of binding sites on the coiled-coil peptides to BH3 binding domain on the protein.
Wavelength spectra were collected (average of 5 scans, from 190 – 300 nm) to evaluate
secondary structure of the individual components and the peptide:protein complexes at 20 °C.
Thermal unfolding experiments monitored the α helical minima at 222 nm from 5 – 85 °C with
a heating ramp of 20 °C/h , and Tm was calculated from the mid -point of unfolding transitions.
A background spectrum of the buffer alone was also collected and subtracted from raw sample
ellipticity values during data conversion.
Data were collected on an APP Chirascan CD spectropolarimeter using 1 mm pathlength
quartz cuvettes. Raw ellipticity data w ere converted to mean residue ellipticity (MRE) using
MRE = (([θ]λ – [θ]0) x Mw) / (n x l x c) […]
curves, the fraction folded was calculated with the following equation […]
The target in series [2] is T1, FAM-Ahx-BID/MCL-1 complex (Homo sapiens, UniProt Q07820).
T1 construct: residues 172 – 327; His6-SUMO (N, cleaved yes); made in house; host or cells: E. coli BL21-Gold (pET28a)
Put plainly: Fluorescence anisotropy competition assay, FAM-Ahx-BID/MCL-1. The format is binding. The source says: (1 picture or pasted object on this page, not shown here) […]
For orientation: Polarisation of emitted light reports the rotation of a fluorescent probe.

T1 sequence (Q07820 172-327, one chain of several): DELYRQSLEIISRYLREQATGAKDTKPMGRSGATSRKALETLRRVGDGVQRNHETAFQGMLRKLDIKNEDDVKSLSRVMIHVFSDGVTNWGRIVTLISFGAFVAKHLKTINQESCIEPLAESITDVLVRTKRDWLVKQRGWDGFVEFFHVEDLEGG

Regarding “MCL-1: α-helix-binding antiapoptotic target protein, residues 172 – 327, expressed in E. coli”, in series [1], the “Tm (thermal unfolding midpoint), component alone” value was 62 °C. Regarding “Ac-GELLAIKQELLRIIGDLVAIKQELLNIKQGYG-NH2 [CC-Tet_E1]”, the half-inhibitory concentration (IC50) in series [2] was found to be 7.4 ± 0.8 µM. The same measure, in the same setting: the figure for “Ac-GEILAIKQEILRIIGDNVAIKQEILNIKQGYG-NH2 [CC-Tri_E1]” is 68 ± 16 µM; for “Ac-GEILALKQEILRLIGDNVALKQEILNLKQGYG-NH2 [CC-Di_E1]” it is 0.8 ± 0.1 µM.
